≈ marks a conversion by molar mass, not a printed value. Where “and” joins values, the source holds several entries; their conditions need not be identical. Identical values can stand only once. Like-named read-outs stand apart in the source and are kept apart here.
Columns and labels:
[1] = test system: trans-translation; test: microbe, parasite or virus in culture; type: cell-based, Escherichia coli; settings: for Luminescence readout (Envision plate reader) / Luminescence, background subtracted (DMSO control): per replicate
[2] = test system: trans-translation; test: In vitro trans-translation assay (S12 extract, nanoluc-ns, tmRNA-nl); type: biochemical, Escherichia coli; settings: in vitro reconstituted assay
Description: The in vitro trans-translation assay is designed to produce the first 157 amino acids of nano-luciferase from a non-stop mRNA (nanoluc-ns) and add the C-terminal peptide […] via a mutant version of E. coli tmRNA (tmRNA-nl) to reconstitute an active nano-luciferase[45]. In this assay, the tagged nano-luciferase gene has >30,000-fold increase in activity over the peptide made in the absence of tmRNA-nl.
S12 lysates were made according to the procedure of Kim, et al.[46]. Briefly, a culture of E. coli BL21 (DE3) cells containing a pET28 plasmid carrying the E. coli T7 polymerase gene was grown at 37 °C to an OD600 = 0.8, induced with 1 mM IPTG and grown for an additional 3 h. Cells were harvested by centrifugation at 20,000 × g for 10 min at 4 °C and the pellet was resuspended in buffer A (20 mM Tris-acetate (pH 8.2), 14 mM Mg(OAc)2, 60 mM potassium glutamate, 1 mM DTT). Cells were lysed by sonication, the lysate was clarified by centrifugation at 12,000 × g for 10 min, and the supernatant was stored at −80 °C.
E. coli SmpB was purified as previously described. tmRNA-nl, a variant of E. coli tmRNA encoding the final 11 residues of nano-luciferase, was transcribed from the tmRNA-nl synthetic DNA sequence in vitro, purified, and folded as previously described for wild-type E. coli tmRNA[3]. The nanoluc-stop template DNA was prepared as previously described[3] by PCR amplification from pMC1 using T7 universal and nanoluc-stop primers. The nanoluc-ns was prepared in a similar manner using pMC1 with T7 universal and nanoluc-ns primers.
For in vitro trans-translation, tmRNA-nl and SmpB were premixed and stored on ice. S12 lysate (2 μl), freshly made polymix buffer (2 μl)[47] (final reaction concentrations 5 mM Hepes pH 7.6, 5 mM NH4Cl, 0.5 mM CaCl2, 1.5 mm MgCl2, 1 mM DTT, 8 mm putrescene, 2 mm ATP, 2 mM GTP, 1 mM CTP, 1 mM UTP, 0.3 mM each amino acid, 3 mg/ml E. coli tRNAs), nanoluc-ns template (0.5 μl; 60 ng) and 2 µl water were mixed and incubated at 37 °C for 5 min. This solution was dispensed to tubes containing 0.5 μl of different concentrations of an inhibitor prepared in 75% acetonitrile, 25% water, and incubated at 37 °C for 5 min. The tmRNA-nl/SmpB mixture (0.5 μl each, 2 μM final) was added to each tube and the samples were incubated at 37 °C for 1.5 h. NanoLuc substrate (Promega) was prepared according to the manufacturer’s instructions, one volume of this substrate solution was added to each sample tube, and the reactions transferred to a white 96-well plate. Luminescence readings were obtained using the SpectraMax i3 microplate reader. Data analysis was performed using GraphPad Prism 8.

[3] = Aqueous solubility (nephelometric); type: physicochemical; settings: aqueous solution (buffer not named); single replicates
[4] = Solubility (formulated); type: physicochemical
[5] = test system: Escherichia coli; test: microbe, parasite or virus in culture; type: cell-based
[6] = test system: Acinetobacter baumannii; test: MIC, microbroth dilution; type: cell-based
[7] = test system: Pseudomonas aeruginosa; test: MIC, microbroth dilution; type: cell-based
[8] = [Compound] 0.0625 µM, listed as MBX-3535
[9] = [Compound] 0.125 µM, listed as MBX-3535
[10] = [Compound] 0.1875 µM, listed as MBX-3535
[11] = [Compound] 0.25 µM, listed as MBX-3535
[12] = [Compound] 0.375 µM, listed as MBX-3535
[13] = [Compound] 0.5 µM, listed as MBX-3535
[14] = [Compound] 0.75 µM, listed as MBX-3535
[15] = [Compound] 1 µM, listed as MBX-3535
[16] = [Compound] 1.5 µM, listed as MBX-3535

SMILES: O=C(Nc1nnc(-c2ccc(F)cc2)o1)c1ccc(Cl)cc1 [KKL-35, 4-chloro-N-(5-(4-fluorophenyl)-1,3,4-oxadiazol-2-yl)benzamide]
- IC50 ([1]; Eco Luc reporter, one value per replicate, listed as MBX-3535, read-out: IC50): 138 nM and 152 nM
- IC50 ([1]; Escherichia coli, E. coli non-stop luciferase reporter, Fig. 1B, read-out: in vivo luc-trpAt IC50): 100 nM
- IC50 ([1]; Escherichia coli, Eco Luc reporter, one value per replicate, read-out: IC50): 156 nM
- Luminescence readout (Envision plate reader) ([1]; [Compound] 0.046875 µM, listed as MBX-3535): 793720 and 792160 and 789800
- Luminescence readout (Envision plate reader) [1, 8]: 778080 and 758560 and 769120
- Luminescence, background subtracted (DMSO control) [1, 8]: -25080 and -11160 and -10320
- Luminescence readout (Envision plate reader) ([1]; [Compound] 0.09375 µM, listed as MBX-3535): 796160 and 783440 and 809640
- Luminescence readout (Envision plate reader) [1, 9]: 838680 and 824680 and 839280
- Luminescence, background subtracted (DMSO control) [1, 9]: 35520 and 54960 and 59840
- Luminescence readout (Envision plate reader) [1, 10]: 931120 and 911280 and 917880
- Luminescence, background subtracted (DMSO control) [1, 10]: 127960 and 141560 and 138440
- Luminescence readout (Envision plate reader) [1, 11]: 975560 and 925440 and 953800
- Luminescence, background subtracted (DMSO control) [1, 11]: 172400 and 155720 and 174360
- Luminescence readout (Envision plate reader) [1, 12]: 918760 and 868800 and 899520
- Luminescence, background subtracted (DMSO control) [1, 12]: 115600 and 99080 and 120080
- Luminescence readout (Envision plate reader) [1, 13]: 894760 and 832920 and 864960
- Luminescence, background subtracted (DMSO control) [1, 13]: 91600 and 63200 and 85520
- Luminescence readout (Envision plate reader) [1, 14]: 938080 and 885720 and 902440
- Luminescence, background subtracted (DMSO control) [1, 14]: 134920 and 116000 and 123000
- Luminescence readout (Envision plate reader) [1, 15]: 1090520 and 985400 and 1035440
- Luminescence, background subtracted (DMSO control) [1, 15]: 287360 and 215680 and 256000
- Luminescence readout (Envision plate reader) [1, 16]: 1101720 and 996520 and 1037480
- Luminescence, background subtracted (DMSO control) [1, 16]: 298560 and 226800 and 258040
- IC50 [2]: 400 nM
- Solubility [3]: 6.3 µM (≈ 2 µg/mL)
- Solubility [4]: 1000 µg/mL (≈ 3150 µM)
- MIC ([5]; Escherichia coli KLE700, replicates): ≥32 µg/mL
- MIC ([5]; Escherichia coli KLE701 (ΔtolC), replicates): 0.50 µg/mL (≈ 1.57 µM)
- MIC ([5]; Escherichia coli, E. coli KLE701 (ΔtolC::tet), source data, individual replicates): 0.496 µg/mL (≈ 1.56 µM)
- MIC ([5]; Escherichia coli, Escherichia coli KLE700, replicates, read-out: MIC): ≥ 32 µg/mL
- MIC ([5]; Escherichia coli, Escherichia coli KLE701 (ΔtolC), replicates): 0.5 µg/mL (≈ 1.57 µM)
- MIC ([5]; Escherichia coli, strain KLE700, read-out: MIC): ≥ 32 µg/mL
- MIC ([5]; Escherichia coli, strain KLE701, KLE700 ΔtolC::tet): 0.5 µg/mL (≈ 1.57 µM)
- MIC ([6]; Acinetobacter baumannii ATCC 19606, replicates): ≥32 µg/mL
- MIC ([6]; Acinetobacter baumannii, ATCC19606, Acinetobacter baumannii ATCC 19606, replicates, read-out: MIC): ≥ 32 µg/mL
- MIC ([6]; Acinetobacter baumannii, ATCC19606, strain ATCC 19606, read-out: MIC): > 32 µg/mL
- MIC ([7]; Pseudomonas aeruginosa ATCC 27853, replicates): ≥32 µg/mL
- MIC ([7]; Pseudomonas aeruginosa, ATCC27853, Pseudomonas aeruginosa ATCC 27853, replicates, read-out: MIC): ≥ 32 µg/mL
- MIC ([7]; Pseudomonas aeruginosa, ATCC27853, strain ATCC 27853, read-out: MIC): > 32 µg/mL
